From patent publication US8772500B2, “TRPV3 modulators” (AbbVie Inc., priority 2011, dated 2014)

Tests used:
[1] = In vitro human microsomal stability assay; assay type: in vitro ADME
Summary of the method: (§1)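 Compounds were incubated at 37 °C with Sprague-Dawley rat liver microsomes (rat assay) or human liver microsomes (human assay) to measure metabolic stability. NADPH was added, including to the time-zero samples.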

[2] = In vitro rat microsomal stability assay; assay type: in vitro ADME, rat (Sprague-Dawley)
Summary of the method: as §1

human TRPV3 = biological target: T1, human TRPV3 (Homo sapiens, UniProt Q8NET8); experiment: In vitro antagonism of recombinant human TRPV3 activation (FLIPR Tetra calcium assay, 2-APB as agonist); assay type: cell-based; settings: HEK293 cells stably expressing human TRPV3; 2-APB 80 μM; range class; read-out: IC50 (reported range)
T1 construct: expressed in transfected cells
T1 sequence (Q8NET8 1-790): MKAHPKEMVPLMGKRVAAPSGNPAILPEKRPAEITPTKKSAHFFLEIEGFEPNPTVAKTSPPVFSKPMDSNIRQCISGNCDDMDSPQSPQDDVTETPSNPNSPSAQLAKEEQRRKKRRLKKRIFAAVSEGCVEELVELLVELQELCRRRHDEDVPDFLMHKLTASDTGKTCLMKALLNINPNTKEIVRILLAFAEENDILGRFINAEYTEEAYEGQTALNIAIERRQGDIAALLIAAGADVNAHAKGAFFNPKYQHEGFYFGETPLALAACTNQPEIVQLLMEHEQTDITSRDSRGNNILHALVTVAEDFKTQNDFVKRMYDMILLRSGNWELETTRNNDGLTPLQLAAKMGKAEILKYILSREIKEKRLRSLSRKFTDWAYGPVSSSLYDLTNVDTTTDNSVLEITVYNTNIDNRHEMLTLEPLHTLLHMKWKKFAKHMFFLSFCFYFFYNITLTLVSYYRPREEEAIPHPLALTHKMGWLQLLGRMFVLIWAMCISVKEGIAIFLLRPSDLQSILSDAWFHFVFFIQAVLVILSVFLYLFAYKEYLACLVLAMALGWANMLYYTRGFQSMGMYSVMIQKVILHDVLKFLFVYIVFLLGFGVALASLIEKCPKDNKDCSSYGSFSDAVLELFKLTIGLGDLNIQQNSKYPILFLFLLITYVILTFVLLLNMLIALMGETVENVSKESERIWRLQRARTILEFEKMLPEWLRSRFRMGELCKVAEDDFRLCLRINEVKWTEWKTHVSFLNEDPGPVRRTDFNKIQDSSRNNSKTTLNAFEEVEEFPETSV
Summary of the method: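 HEK293 cells stably expressing human TRPV3, loaded with Calcium-4 dye for 90-120 min; compound added 3 min before 2-APB at 80 μM (its EC80). Fluorescence (max minus min) over 10 min expressed as % of maximal 2-APB response without antagonist; IC50 mostly averaged from n≧2 runs.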

[3] = Sprague-Dawley, rat, 0.5 h, 0.5 μM, pH 7.4
[4] = 0.5 μM substrate, 0.25 mg/mL microsomal protein, pH 7.4, 37° C., NADPH, 30 minutes

SMILES	HUMAN MICROSOMAL STABILITY (% REMAINING AFTER 30 MINUTES) ([1]; human, 0.5 h, 0.5 μM, pH 7.4) [%]	RAT MICROSOMAL STABILITY (% REMAINING AFTER 30 MINUTES) [2, 3] [%]	IC50 (human TRPV3) [nM]	HUMAN MICROSOMAL STABILITY (% REMAINING AFTER 30 MINUTES) [1, 4] [%]	RAT MICROSOMAL STABILITY (% REMAINING AFTER 30 MINUTES) [2, 4] [%]
OC(c1ccccn1)C1(c2cc(C(F)(F)F)ccn2)CCC1 (stereo not drawn) [Example 116, pyridin-2-yl{1-[4-(trifluoromethyl)pyridin-2-yl]cyclobutyl}methanol]	37	25	501 to 1000		
O=C1CC(c2ccc(Cl)c(Cl)c2)([C@H](O)c2ccccn2)C1 [Example 117, 3-(3,4-dichlorophenyl)-3-[(S)-hydroxy(pyridin-2-yl)methyl]cyclobutanone]	18	50	1100 to 5000		
O[C@H](c1ccccn1)C1(c2cc(C(F)(F)F)ccn2)CCC1 [Example 123, (S)-pyridin-2-yl{1-[4-(trifluoromethyl)pyridin-2-yl]cyclobutyl}methanol]	21	11	50 to 500		
O[C@@H](c1ccccn1)C1(c2cc(C(F)(F)F)ccn2)CC(F)(F)C1 [Example 125, (R)-{3,3-difluoro-1-[4-(trifluoromethyl)pyridin-2-yl]cyclobutyl}(pyridin-2-yl)methanol]	53	8.8	5100 to 20000		
O[C@H](c1ccccn1)C1(c2cc(C(F)(F)F)ccn2)CC(F)(F)C1 [Example 126, (S)-{3,3-difluoro-1-[4-(trifluoromethyl)pyridin-2-yl]cyclobutyl}(pyridin-2-yl)methanol]	21	7.7	501 to 1000		
Nc1cccnc1C(O)C1(c2ccc(C(F)(F)F)cc2)CCC1 (stereo not drawn) [Example 127, (3-aminopyridin-2-yl){1-[4-(trifluoromethyl)phenyl]cyclobutyl}methanol]	51	1.1	5100 to 20000		
O[C@H](c1ccccn1)C1(c2ccc(OC(F)(F)F)cc2)CC(F)(F)C1 [Example 128, (S)-{3,3-difluoro-1-[4-(trifluoromethoxy)phenyl]cyclobutyl}(pyridin-2-yl)-methanol]	59	67	50 to 500		
COC1(OC)CC(c2ccc(OC(F)(F)F)cc2)(C(O)c2ccccn2)C1 (stereo not drawn) [Example 129, {3,3-dimethoxy-1-[4-(trifluoromethoxy)phenyl]cyclobutyl}(pyridin-2-yl)-methanol]	46	0.01	50 to 500		
Nc1cccnc1C(O)C1(c2ccc(Cl)c(Cl)c2)CCC1 (stereo not drawn) [Example 130, (3-aminopyridin-2-yl) [1-(3,4-dichlorophenyl)cyclobutyl]methanol]	4.0	<0.01	1100 to 5000		
OC1CC(c2ccc(OC(F)(F)F)cc2)(C(O)c2ccccn2)C1 [Example 132, (trans)-3-[(S)-hydroxy(pyridin-2-yl)methyl]-3-[4-(trifluoromethoxy)phenyl]-cyclobutanol]	81	72	5100 to 20000		
OC(c1ccccn1)C1(c2ccc(C(F)(F)F)cc2)CC(F)(F)C1 (stereo not drawn) [Example 133, {3,3-difluoro-1-[4-(trifluoromethyl)phenyl]cyclobutyl}(pyridin-2-yl)-methanol]	73	61	50 to 500		
O[C@H](c1ccccn1)[C@@]1(c2ccc(Cl)c(Cl)c2)CCO1 [Example 135, (R)-[(2S)-2-(3,4-dichlorophenyl)oxetan-2-yl](pyridin-2-yl)methanol]	33	3.4	501 to 1000		
O[C@H](c1ccccn1)[C@]1(c2ccc(Cl)c(Cl)c2)CCO1 [Example 136, (R)-[(2R)-2-(3,4-dichlorophenyl)oxetan-2-yl](pyridin-2-yl)methanol]	24	9.5	50 to 500		
OC(c1ccccn1)C1(c2ccc(C(F)(F)F)cn2)CC(F)(F)C1 (stereo not drawn) [Example 137, {3,3-difluoro-1-[5-(trifluoromethyl)pyridin-2-yl]cyclobutyl}(pyridin-2-yl)-methanol]	77	>85	1100 to 5000		
OC(c1ccccn1)C1(c2ccc(Cl)c(C(F)(F)F)c2)CC(F)(F)C1 (stereo not drawn) [Example 138, {1-[4-chloro-3-(trifluoromethyl)phenyl]-3,3-difluorocyclobutyl}(pyridin-2-yl)methanol]	41	18	501 to 1000		
OC(c1ccccn1)C1(c2ccc(F)c(C(F)(F)F)c2)CC(F)(F)C1 (stereo not drawn) [Example 139, {3,3-difluoro-1-[4-fluoro-3-(trifluoromethyl)phenyl]cyclobutyl}(pyridin-2-yl)methanol]	41	26	501 to 1000		
CN1CCC(c2ccc(OC(F)(F)F)cc2)(C(O)c2ccccn2)CC1 (stereo not drawn) [Example 145, {1-methyl-4-[4-(trifluoromethoxy)phenyl]piperidin-4-yl}(pyridin-2-yl)-methanol]			1100 to 5000	68	42
CN1CCC(c2cccc(OC(F)(F)F)c2)(C(O)c2ccccn2)CC1 (stereo not drawn) [Example 146, {1-methyl-4-[3-(trifluoromethoxy)phenyl]piperidin-4-yl}(pyridin-2-yl)-methanol]			5100 to 20000	84	8.9
OC(c1ccccn1)C1(c2cccc(OC(F)(F)F)c2)CCNCC1 (stereo not drawn) [Example 148, pyridin-2-yl{4-[3-(trifluoromethoxy)phenyl]piperidin-4-yl}methanol]			1100 to 5000	>85	53
CN1CCC(c2ccccc2OC(F)(F)F)(C(O)c2ccccn2)CC1 (stereo not drawn) [Example 149, {1-methyl-4-[2-(trifluoromethoxy)phenyl]piperidin-4-yl}(pyridin-2-yl)-methanol]			5100 to 20000	>85	62
COC1CC(c2ccc(Cl)c(Cl)c2)(C(O)c2ccccn2)C1 [Example 150, (S)-[cis-1-(3,4-dichlorophenyl)-3-methoxycyclobutyl](pyridin-2-yl)methanol]	42	<0.01	1100 to 5000		
COC1CC(c2ccc(Cl)c(Cl)c2)([C@H](O)c2ccccn2)C1 (stereo partly drawn) [Example 151, (S)-[1-(3,4-dichlorophenyl)-3-methoxycyclobutyl](pyridin-2-yl)methanol]	32	<0.01	1100 to 5000		
OC(c1ccccn1)C1(c2ccc(C(F)(F)F)cc2)CNC1 (stereo not drawn) [Example 152, pyridin-2-yl{3-[4-(trifluoromethyl)phenyl]azetidin-3-yl}methanol]	>85	>85	5100 to 20000		
